Consider eight compounds from PubChem BioAssay (NCI).

Test systems include U251 CNS; NCI/ADR-RES ovarian; SK-MEL-2 melanoma; RPMI-8226 leukemia; T-47D breast; MDA-MB-435; HT29 colon; A498 renal; KM12 colon; NCI-H522 lung; SK-MEL-5 melanoma; HOP-92 NSCLC; TK-10 renal; MDA-N; MOLT-4 leukemia; HCT-116 colon; HCC-2998 colon; NCI-H460 lung; HS 578T breast.
Holding throughout (assay): NCI anticancer screen, dose series, 48 h

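How tested: cells in 96-well plates exposed to compound for 48 hours at five concentrations. TGI: concentration producing complete growth inhibition.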

As to `OC(CCN1CCCCC1)(c1ccccc1)c1ccccc1`, the TGI in the assay with U251 CNS, in the assay with NCI/ADR-RES ovarian, in the assay on SK-MEL-2 melanoma, in the assay with RPMI-8226 leukemia, with T-47D breast and with MDA-MB-435 was more than 100 µM throughout. Moreover, the TGI in the assay on HT29 colon, in the assay on A498 renal, in the assay on KM12 colon, with NCI-H522 lung, in the assay on SK-MEL-5 melanoma and in the assay with HOP-92 NSCLC was more than 100 µM in each case. Further, the TGI with TK-10 renal, with MDA-N, in the assay on MOLT-4 leukemia and in the assay with HCT-116 colon was more than 100 µM each time.

For the compound `COc1nc(C)nc2sc3c(c12)CCCC3`, the TGI in the assay with U251 CNS, in the assay with NCI/ADR-RES ovarian, in the assay with SK-MEL-2 melanoma, with RPMI-8226 leukemia, in the assay on HCC-2998 colon and with T-47D breast was more than 100 µM throughout. Besides, the TGI in the assay with NCI-H460 lung, in the assay with MDA-MB-435, in the assay on HS 578T breast, in the assay on HT29 colon, in the assay on A498 renal and in the assay with KM12 colon was more than 100 µM throughout. Moreover, the TGI with NCI-H522 lung, with SK-MEL-5 melanoma, in the assay with TK-10 renal, in the assay on MDA-N, in the assay with MOLT-4 leukemia and with HCT-116 colon was more than 100 µM throughout.

In the case of `ClC1(Cl)C(c2ccccc2)C1c1ccccc1` (stereo not drawn), the TGI in the assay on U251 CNS is more than 100 µM; in the assay on NCI/ADR-RES ovarian it was 30.8 µM; in the assay with SK-MEL-2 melanoma it was 40.2 µM; in the assay on RPMI-8226 leukemia it was 79.8 µM; with HCC-2998 colon it was 30 µM; with T-47D breast it was more than 100 µM. In addition, the TGI with NCI-H460 lung is 51.2 µM; in the assay on MDA-MB-435, 68.6 µM; with HS 578T breast it was more than 100 µM; in the assay with A498 renal it was more than 100 µM; in the assay with KM12 colon, more than 100 µM; with TK-10 renal, more than 100 µM. Besides, the TGI is 35.2 µM with MDA-N, more than 100 µM in the assay on MOLT-4 leukemia and more than 100 µM in the assay on HCT-116 colon.

As to `CN(C)C=Nc1cccc2nsnc12`, the TGI with U251 CNS, in the assay on NCI/ADR-RES ovarian, in the assay with SK-MEL-2 melanoma, in the assay on RPMI-8226 leukemia, in the assay with T-47D breast and with MDA-MB-435 was more than 100 µM in each case. Besides, the TGI with HS 578T breast, in the assay with HT29 colon, in the assay on A498 renal, with NCI-H522 lung, with SK-MEL-5 melanoma and in the assay with HOP-92 NSCLC was more than 100 µM throughout. Further, the TGI with TK-10 renal, in the assay with MDA-N, in the assay on MOLT-4 leukemia and in the assay on HCT-116 colon was more than 100 µM each time.

Turning to `Cc1cc(C)nc(NS(=O)(=O)c2ccc(NNc3c4ccccc4nc4c(C(=O)Nc5ccc(S(=O)(=O)Nc6ncccn6)cc5)cccc34)cc2)n1`, the TGI in the assay on U251 CNS is 56 µM; in the assay with NCI/ADR-RES ovarian it was more than 100 µM; in the assay with SK-MEL-2 melanoma it was 43.6 µM; in the assay with RPMI-8226 leukemia, 76.8 µM; with HCC-2998 colon it was 51.2 µM; in the assay on T-47D breast, 74.3 µM. In addition, the TGI in the assay on NCI-H460 lung is 92 µM; with MDA-MB-435 it was 55.3 µM; in the assay with HS 578T breast, more than 100 µM; with HT29 colon it was 77.4 µM; in the assay on KM12 colon, more than 100 µM; with NCI-H522 lung, 48.9 µM. Also, the TGI was 47.5 µM with SK-MEL-5 melanoma; 66.5 µM in the assay with HOP-92 NSCLC; more than 100 µM with TK-10 renal; more than 100 µM in the assay with MDA-N; 92.9 µM with MOLT-4 leukemia; 39.2 µM in the assay with HCT-116 colon.

As to `Cc1csc2nc3c(cnn3C)c(=S)n12`, the TGI is more than 100 µM in the assay on U251 CNS; more than 100 µM with NCI/ADR-RES ovarian; more than 100 µM with SK-MEL-2 melanoma; more than 100 µM in the assay on RPMI-8226 leukemia; more than 100 µM in the assay with HCC-2998 colon; more than 10 µM with T-47D breast. In addition, the TGI is more than 100 µM with NCI-H460 lung; more than 100 µM with MDA-MB-435; more than 100 µM with HS 578T breast; more than 100 µM in the assay on HT29 colon; more than 100 µM in the assay with KM12 colon; 41.9 µM in the assay with NCI-H522 lung. The TGI with SK-MEL-5 melanoma, with TK-10 renal, in the assay with MDA-N, in the assay with MOLT-4 leukemia and with HCT-116 colon was more than 100 µM throughout.

`CCC(C)C(C(=O)N/N=C1/SCC(=O)N1c1ccccc1)C(=O)N/N=C1/SCC(=O)N1c1ccccc1` (stereo not drawn): the TGI was more than 100 µM with U251 CNS; more than 100 µM with NCI/ADR-RES ovarian; 83.1 µM in the assay on SK-MEL-2 melanoma; more than 100 µM in the assay on HCC-2998 colon; more than 100 µM in the assay on T-47D breast; more than 100 µM in the assay with NCI-H460 lung. Also, the TGI is 35.9 µM with MDA-MB-435; more than 100 µM in the assay with HS 578T breast; more than 100 µM in the assay with HT29 colon; 93.9 µM in the assay with KM12 colon; more than 100 µM in the assay on NCI-H522 lung; 41.7 µM in the assay on SK-MEL-5 melanoma. Also, the TGI is 45.2 µM with HOP-92 NSCLC; more than 100 µM in the assay with TK-10 renal; 94.6 µM in the assay on MDA-N; more than 100 µM in the assay with MOLT-4 leukemia; 58.9 µM in the assay on HCT-116 colon.

Take `CC12CCC3[C@@H](CC3(C)C)C(O)(CCC1=O)C2` (stereo partly drawn): the TGI in the assay on U251 CNS, in the assay with NCI/ADR-RES ovarian, in the assay with SK-MEL-2 melanoma, in the assay on RPMI-8226 leukemia, in the assay on HCC-2998 colon and in the assay on T-47D breast was more than 100 µM each time. In addition, the TGI with MDA-MB-435, in the assay with HS 578T breast, in the assay with HT29 colon, in the assay with KM12 colon, in the assay on SK-MEL-5 melanoma and in the assay with HOP-92 NSCLC was more than 100 µM each time. Also, the TGI with TK-10 renal, in the assay with MDA-N, with MOLT-4 leukemia and in the assay on HCT-116 colon was more than 100 µM throughout.
